This is an account of results in ChEMBL document CHEMBL1201862, “PubChem BioAssay data set” (2004).

Activity calls are given as the source filed them.

The target in series [1] is T1, Cytochrome P450 3A4 (Homo sapiens, UniProt P08684).
A further series has as its target Cytochrome P450 2D6 (Homo sapiens, UniProt P10635).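 Note: CYP2D6 member of a cytochrome P450 panel assay.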
The nature of series [2]: Luminescence Cell-Based Dose Retest to Confirm Inhibitors of Cancer Stem Cells. [Related pubchem assays (depositor defined):AID2717, AID2721]. The settings on record: Homo sapiens. The format is functional.
Series [3] can be described thus: viability loss of HMLE_sh_eGFP cells – cell-based, luminescence, counter-screen for HMLE_sh_ECad selective toxicity project, dose response (AID 463074).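 Note: HMLE human mammary epithelial cells expressing control shRNA against eGFP.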 The series is classed as functional, Homo sapiens. In general terms: Counterscreens check selectivity or assay interference.
For series [4], the target named is T2, Ubiquitin-conjugating enzyme E2 N (Homo sapiens, UniProt P61088).
T2 sequence (P61088 whole entry): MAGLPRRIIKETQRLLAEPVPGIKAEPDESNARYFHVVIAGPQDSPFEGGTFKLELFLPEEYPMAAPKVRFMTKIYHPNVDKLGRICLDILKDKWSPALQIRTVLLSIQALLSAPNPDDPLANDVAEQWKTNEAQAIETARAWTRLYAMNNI
The format is functional.

Series [5] has as its target Peroxisome proliferator-activated receptor gamma/Nuclear receptor coactivator 1 (Homo sapiens, UniProt P37231). Nature of the series: TR-FRET dose response biochemical High Throughput Screening assay for agonists of the steroid receptor coactivator 1 (SRC-1) recruitment by the peroxisome proliferator-activated receptor gamma (PPAR gamma): non-selective agonists. [Related pubchem assays (depositor defined):AID1300, AID1808, AID504735, AID631]. The series is classed as protein assay. (In general: In TR-FRET formats the signal depends on donor and acceptor labels being close together.)

Series [6] deals with Peroxisome proliferator-activated receptor gamma/Nuclear receptor coactivator 3 (Homo sapiens, UniProt P37231). The series is described as follows: TR-FRET dose response biochemical High Throughput Screening assay for agonists of the steroid receptor coactivator 3 (SRC-3) recruitment by the peroxisome proliferator-activated receptor gamma (PPAR gamma): non-selective agonists. [Related pubchem assays: 1301 (Confirmation screen.), 1048 (Primary screen.)]. The format is functional.

The target of series [7] is Peroxisome proliferator-activated receptor gamma/Nuclear receptor coactivator 2 (Homo sapiens, UniProt P37231). The series is described as follows: TR-FRET dose response biochemical High Throughput Screening assay for agonists of the steroid receptor coactivator 2 (SRC-2) recruitment by the peroxisome proliferator-activated receptor gamma (PPAR gamma): non-selective agonists. [Related pubchem assays: 1297, 1032 ]. The format is functional.
Sequence of Peroxisome proliferator-activated receptor gamma/Nuclear receptor coactivator 2 (P37231 whole entry): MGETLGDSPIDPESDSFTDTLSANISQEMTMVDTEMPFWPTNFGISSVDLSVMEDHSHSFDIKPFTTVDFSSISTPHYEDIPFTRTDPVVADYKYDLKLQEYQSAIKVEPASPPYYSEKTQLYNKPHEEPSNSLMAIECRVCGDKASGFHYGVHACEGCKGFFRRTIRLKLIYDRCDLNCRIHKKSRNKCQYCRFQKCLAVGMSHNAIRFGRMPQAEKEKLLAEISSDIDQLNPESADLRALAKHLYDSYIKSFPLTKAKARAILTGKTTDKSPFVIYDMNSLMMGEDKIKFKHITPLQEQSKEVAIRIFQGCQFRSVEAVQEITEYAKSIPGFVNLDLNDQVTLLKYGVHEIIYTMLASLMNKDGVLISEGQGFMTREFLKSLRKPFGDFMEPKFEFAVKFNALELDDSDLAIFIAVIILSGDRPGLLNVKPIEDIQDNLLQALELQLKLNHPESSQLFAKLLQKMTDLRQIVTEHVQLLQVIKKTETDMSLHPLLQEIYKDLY
Sequence of Peroxisome proliferator-activated receptor gamma/Nuclear receptor coactivator 2 (Q15596 whole entry, further chain): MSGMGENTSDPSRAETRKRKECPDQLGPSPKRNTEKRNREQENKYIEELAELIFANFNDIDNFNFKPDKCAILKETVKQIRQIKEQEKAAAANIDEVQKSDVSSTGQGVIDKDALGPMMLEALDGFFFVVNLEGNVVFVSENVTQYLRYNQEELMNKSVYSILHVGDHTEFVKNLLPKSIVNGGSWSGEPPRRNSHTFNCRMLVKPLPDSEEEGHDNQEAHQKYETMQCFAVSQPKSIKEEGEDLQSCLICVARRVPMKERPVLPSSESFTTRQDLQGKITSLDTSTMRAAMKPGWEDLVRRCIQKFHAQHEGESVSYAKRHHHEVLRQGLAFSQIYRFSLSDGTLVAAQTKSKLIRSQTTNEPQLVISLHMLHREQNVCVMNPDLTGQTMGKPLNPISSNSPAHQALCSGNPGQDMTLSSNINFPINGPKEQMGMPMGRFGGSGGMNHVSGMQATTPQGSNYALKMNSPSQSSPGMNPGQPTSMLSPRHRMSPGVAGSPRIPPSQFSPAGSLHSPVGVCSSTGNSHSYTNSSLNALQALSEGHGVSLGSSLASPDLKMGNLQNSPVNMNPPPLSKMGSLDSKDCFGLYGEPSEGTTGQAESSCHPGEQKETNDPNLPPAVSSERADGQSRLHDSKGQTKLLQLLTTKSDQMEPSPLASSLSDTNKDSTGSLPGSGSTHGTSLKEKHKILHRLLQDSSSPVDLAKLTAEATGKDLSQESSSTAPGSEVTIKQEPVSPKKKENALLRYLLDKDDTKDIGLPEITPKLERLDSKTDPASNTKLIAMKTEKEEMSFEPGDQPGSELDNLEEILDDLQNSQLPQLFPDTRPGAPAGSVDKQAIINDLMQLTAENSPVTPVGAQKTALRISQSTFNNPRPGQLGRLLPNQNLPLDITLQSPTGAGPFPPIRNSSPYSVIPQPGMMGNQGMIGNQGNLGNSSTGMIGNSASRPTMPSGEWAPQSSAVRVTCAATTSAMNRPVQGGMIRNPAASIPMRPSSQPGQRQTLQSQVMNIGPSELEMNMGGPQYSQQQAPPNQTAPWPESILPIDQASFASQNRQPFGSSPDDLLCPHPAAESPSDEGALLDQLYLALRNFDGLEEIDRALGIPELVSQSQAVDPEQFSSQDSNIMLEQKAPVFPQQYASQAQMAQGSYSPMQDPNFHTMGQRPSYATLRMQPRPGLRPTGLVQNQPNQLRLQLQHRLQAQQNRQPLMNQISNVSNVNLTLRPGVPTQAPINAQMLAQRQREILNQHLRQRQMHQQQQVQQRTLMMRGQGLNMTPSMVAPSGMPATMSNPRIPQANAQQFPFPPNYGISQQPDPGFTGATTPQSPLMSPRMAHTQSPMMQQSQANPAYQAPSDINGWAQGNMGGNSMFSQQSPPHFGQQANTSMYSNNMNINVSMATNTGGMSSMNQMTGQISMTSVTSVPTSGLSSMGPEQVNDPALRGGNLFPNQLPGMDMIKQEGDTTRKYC

For series [8], the target named is T2, Ubiquitin-conjugating enzyme E2 N. The format is functional. The source holds these as a separate data set.
The target in another series is T3, Bcl-2-related protein A1 (Mus musculus, UniProt Q07440).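 Note: confirmatory dose–response counterscreen on Bfl-1, used to check hits from a UBC13 polyubiquitin inhibitor campaign.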
T3 sequence (Q07440 whole entry): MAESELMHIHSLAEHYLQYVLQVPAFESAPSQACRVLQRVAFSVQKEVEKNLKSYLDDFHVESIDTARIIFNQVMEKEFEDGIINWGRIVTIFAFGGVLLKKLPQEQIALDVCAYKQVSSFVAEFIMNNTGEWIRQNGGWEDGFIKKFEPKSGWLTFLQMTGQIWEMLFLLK
The series is classed as functional.

The target of series [9] is T4, Orexin/Hypocretin receptor type 1 (Homo sapiens, UniProt O43613).
T4 sequence (O43613 whole entry): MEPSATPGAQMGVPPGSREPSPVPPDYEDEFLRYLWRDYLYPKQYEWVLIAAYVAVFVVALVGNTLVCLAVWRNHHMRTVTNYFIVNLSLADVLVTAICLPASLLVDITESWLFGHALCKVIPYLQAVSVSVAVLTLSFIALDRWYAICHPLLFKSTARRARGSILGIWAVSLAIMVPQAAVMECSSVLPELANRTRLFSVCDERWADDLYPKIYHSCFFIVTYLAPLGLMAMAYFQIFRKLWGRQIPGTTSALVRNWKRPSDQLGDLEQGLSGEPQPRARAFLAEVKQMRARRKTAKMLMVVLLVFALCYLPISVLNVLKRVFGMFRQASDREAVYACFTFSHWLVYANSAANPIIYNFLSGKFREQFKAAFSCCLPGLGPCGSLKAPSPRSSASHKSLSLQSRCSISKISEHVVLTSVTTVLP
Nature of the series: Homogeneous Time Resolved Fluorescence (HTRF)-based cell-based high throughput dose response assay for antagonists of the orexin 1 receptor (OX1R; HCRTR1). [Related pubchem assays (depositor defined):AID434989, AID435008, AID463079, AID485270, AID492963, AID492964, AID492965, AID493232, AID504717, AID504718]. The format is functional.

In another series the test system is CHO-K1. Nature of the series: Counterscreen for antagonists of the orexin 1 receptor (OX1R; HCRTR1): Homogeneous time resolved fluorescence (HTRF)-based cell-based dose response assay to identify antagonists of the parental CHO-K1 cell line. [Related pubchem assays (depositor defined):AID434989, AID435008, AID463079, AID485270, AID492963, AID492964, AID492965, AID493232, AID504699, AID504701]. The series is classed as functional. The settings on record: Cricetulus griseus.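 Note: potency for inhibition of ATP-stimulated IP1 production as antagonists.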

In series [10] the target is T4, Orexin/Hypocretin receptor type 1. Nature of the series: Fluorescence-based cell-based high throughput dose response assay for antagonists of the orexin 1 receptor (OX1R; HCRTR1). [Related pubchem assays (depositor defined):AID434989, AID435008, AID463079, AID485270, AID492963, AID492964, AID492965, AID493232, AID504717, AID504718]. The series is classed as functional.

Series [11] can be described thus: Counterscreen for antagonists of the orexin 1 receptor (OX1R; HCRTR1): Fluorescence-based cell-based high throughput dose response assay to identify antagonists of the parental CHO cell line. [Related pubchem assays (depositor defined):AID434989, AID435008, AID463079, AID485270, AID492963, AID492964, AID492965, AID493232, AID504699, AID504701]. The format is functional.

In series [12] the target is T1, Cytochrome P450 3A4. The source holds these as a separate data set.
The next series concerns the target Protein Wnt-3a (Mus musculus, UniProt P27467). Nature of the series: antagonism of Wnt3a pathway luciferase reporter – Wnt-LIGHT cells, luminescence, selectivity assay for Gli-SUFU antagonist project, dose response (AID 651570).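 Note: Wnt-LIGHT reporter cells stimulated with conditioned medium from Wnt3a-producing cells.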 The format is functional. The settings on record: read-out: IC50_Mean. In general terms: A reporter such as luciferase makes a cellular process visible.

Series [13] can be described thus: Trypanosoma cruzi growth suppression in host cells – NIH3T3 host cells, beta-gal luminescence, confirmation (AID 2044).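 Note: intracellular parasites grown in NIH/3T3 mouse fibroblasts as host cells; luminescent beta-galactosidase reporter signal from transgenic T. cruzi replicating inside host cells; inhibitors lower the luminescence signal.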 The format is functional, cell-based.
Series [14] can be described thus: NIH3T3 cell viability loss – ATP luminescence, mouse fibroblasts, counter-screen, dose response (AID 2010).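 Note: cells exposed to compound for about 90 hours before reading.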 The format is functional, cell-based.
Series [15] addresses T5, Mannose-6-phosphate isomerase (Homo sapiens, UniProt P34949).
T5 sequence (P34949 whole entry): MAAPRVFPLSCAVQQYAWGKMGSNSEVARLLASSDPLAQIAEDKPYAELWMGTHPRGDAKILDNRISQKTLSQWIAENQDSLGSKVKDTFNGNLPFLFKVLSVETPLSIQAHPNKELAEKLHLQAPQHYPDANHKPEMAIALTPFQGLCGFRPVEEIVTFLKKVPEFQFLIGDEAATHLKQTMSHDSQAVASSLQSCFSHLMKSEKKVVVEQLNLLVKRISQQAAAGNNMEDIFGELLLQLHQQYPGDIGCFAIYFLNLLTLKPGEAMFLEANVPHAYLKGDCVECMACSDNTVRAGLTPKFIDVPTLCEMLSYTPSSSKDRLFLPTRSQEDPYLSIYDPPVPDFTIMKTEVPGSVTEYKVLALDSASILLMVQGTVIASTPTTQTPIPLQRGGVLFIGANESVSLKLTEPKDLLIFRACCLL
Nature of the series: MPI enzyme activity inhibition – biochemical, fluorescence intensity, coupled assay, primary screen (AID 1209).

The subject of a further series is INS1. The series is described as follows: INS-1E survival protection against cytokine death – cell-based, luminescence, retest, dose response (AID 449756).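 Note: cell death triggered by IL-1 beta plus TNF-alpha plus IFN-gamma mixture; protective hits raise ATP signal compared with cytokine alone wells.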 The format is functional. The note with it: Rattus norvegicus.
A further series concerns HeLa. Nature of the series: ATP-based viability loss in HeLa cells – cell-based, CellTiter-Glo luminescence, cherry-pick samples, cytotoxicity control for MITF activator project, dose response (AID 540259). The format is functional. The note with it: Homo sapiens.
For a further series, the target named is Cytochrome P450 2C9 (Homo sapiens, UniProt P11712).
Series [16] concerns the target T6, Rac GTPase-activating protein 1 (Homo sapiens, UniProt Q9H0H5).
T6 sequence (Q9H0H5 whole entry): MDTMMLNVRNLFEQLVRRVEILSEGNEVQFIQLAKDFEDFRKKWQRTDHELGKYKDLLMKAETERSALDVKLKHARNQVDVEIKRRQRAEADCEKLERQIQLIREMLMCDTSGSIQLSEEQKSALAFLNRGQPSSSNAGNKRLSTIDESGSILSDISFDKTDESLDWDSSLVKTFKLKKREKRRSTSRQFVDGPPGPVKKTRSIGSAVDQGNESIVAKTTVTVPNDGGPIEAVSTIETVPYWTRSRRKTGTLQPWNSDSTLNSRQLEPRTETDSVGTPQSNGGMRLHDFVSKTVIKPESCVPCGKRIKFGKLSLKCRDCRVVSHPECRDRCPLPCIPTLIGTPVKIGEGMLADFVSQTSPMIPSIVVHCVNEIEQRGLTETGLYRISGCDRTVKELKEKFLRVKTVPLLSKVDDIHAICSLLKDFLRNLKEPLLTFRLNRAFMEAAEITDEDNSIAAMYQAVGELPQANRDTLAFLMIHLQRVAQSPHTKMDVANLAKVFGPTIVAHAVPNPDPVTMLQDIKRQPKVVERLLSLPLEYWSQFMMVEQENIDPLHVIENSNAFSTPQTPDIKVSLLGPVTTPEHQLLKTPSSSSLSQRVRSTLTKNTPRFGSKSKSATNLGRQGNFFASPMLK
Nature of the series: blockers of MgcRacGAP-driven Rac1 GTP hydrolysis – biochemical, ADP Hunter fluorescence, primary and confirmatory, confirmation (AID 624330). The series is classed as functional.

A further series deals with Escherichia coli. The series is described as follows: microbe, parasite or virus in culture.

T1 sequence (P08684 whole entry): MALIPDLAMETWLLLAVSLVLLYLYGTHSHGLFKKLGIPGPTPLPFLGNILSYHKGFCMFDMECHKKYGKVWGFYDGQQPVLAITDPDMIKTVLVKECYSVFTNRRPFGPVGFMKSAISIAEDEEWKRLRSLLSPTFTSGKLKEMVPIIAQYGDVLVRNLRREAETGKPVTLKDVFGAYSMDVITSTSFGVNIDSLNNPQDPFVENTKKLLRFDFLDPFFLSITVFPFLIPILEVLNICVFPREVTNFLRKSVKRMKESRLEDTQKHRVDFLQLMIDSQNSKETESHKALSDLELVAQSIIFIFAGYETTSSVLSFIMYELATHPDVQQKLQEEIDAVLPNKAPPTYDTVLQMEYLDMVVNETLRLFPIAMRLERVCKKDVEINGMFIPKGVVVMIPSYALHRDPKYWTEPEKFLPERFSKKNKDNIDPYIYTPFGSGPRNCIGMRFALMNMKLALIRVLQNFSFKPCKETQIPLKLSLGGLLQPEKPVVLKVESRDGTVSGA
Sequence of Protein Wnt-3a (P27467 whole entry): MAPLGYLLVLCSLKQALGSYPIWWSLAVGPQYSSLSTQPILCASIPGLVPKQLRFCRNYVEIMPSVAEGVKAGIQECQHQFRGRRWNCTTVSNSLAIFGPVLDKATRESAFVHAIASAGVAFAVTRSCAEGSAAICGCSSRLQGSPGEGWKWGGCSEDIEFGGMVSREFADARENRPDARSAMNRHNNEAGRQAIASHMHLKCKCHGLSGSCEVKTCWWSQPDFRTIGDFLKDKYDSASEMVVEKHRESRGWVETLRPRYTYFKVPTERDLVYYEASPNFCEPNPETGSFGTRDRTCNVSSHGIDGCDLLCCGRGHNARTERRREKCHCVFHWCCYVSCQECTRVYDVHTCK
Sequence of Peroxisome proliferator-activated receptor gamma/Nuclear receptor coactivator 1 (P37231 whole entry): as the sequence (P37231 whole entry) above
Sequence of Peroxisome proliferator-activated receptor gamma/Nuclear receptor coactivator 1 (Q15788 whole entry, further chain): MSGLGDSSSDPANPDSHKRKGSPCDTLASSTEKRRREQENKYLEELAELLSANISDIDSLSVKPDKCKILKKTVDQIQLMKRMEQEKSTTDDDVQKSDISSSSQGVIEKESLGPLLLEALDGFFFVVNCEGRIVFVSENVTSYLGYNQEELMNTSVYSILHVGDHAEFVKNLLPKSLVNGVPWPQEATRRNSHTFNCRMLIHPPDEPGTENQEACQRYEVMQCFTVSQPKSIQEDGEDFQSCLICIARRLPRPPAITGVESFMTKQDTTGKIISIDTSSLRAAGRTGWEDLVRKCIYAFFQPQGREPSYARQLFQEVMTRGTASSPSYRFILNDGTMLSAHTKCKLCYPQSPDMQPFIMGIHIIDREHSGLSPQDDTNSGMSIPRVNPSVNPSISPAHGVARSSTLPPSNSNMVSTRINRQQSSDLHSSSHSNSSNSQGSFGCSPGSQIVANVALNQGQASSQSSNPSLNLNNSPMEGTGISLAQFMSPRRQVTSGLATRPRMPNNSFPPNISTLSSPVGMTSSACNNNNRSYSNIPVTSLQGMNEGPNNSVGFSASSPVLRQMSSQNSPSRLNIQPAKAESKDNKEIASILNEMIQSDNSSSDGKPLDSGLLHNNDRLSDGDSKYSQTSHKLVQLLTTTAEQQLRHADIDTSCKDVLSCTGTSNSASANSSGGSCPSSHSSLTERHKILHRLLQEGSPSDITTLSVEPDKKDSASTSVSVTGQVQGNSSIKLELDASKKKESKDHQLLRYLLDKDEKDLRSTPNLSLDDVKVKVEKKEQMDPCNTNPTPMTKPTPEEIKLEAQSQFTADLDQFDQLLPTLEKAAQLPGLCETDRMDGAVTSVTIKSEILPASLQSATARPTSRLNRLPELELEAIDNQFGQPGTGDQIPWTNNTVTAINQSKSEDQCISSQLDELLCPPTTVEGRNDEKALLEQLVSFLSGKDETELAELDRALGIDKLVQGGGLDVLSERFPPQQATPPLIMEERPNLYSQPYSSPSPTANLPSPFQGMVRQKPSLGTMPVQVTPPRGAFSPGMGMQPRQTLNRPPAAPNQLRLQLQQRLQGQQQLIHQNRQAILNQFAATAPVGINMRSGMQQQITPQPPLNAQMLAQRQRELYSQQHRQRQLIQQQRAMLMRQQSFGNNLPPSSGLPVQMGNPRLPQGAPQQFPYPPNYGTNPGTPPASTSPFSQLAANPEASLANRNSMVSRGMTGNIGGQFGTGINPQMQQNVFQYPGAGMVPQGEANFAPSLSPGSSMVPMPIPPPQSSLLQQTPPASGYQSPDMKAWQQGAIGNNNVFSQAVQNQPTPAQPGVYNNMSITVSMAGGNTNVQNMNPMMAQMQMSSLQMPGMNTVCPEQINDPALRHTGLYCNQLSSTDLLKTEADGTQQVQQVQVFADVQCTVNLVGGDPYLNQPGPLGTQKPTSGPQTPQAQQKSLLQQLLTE

One may read the AC50 as the midpoint of the concentration-response curve, whichever way the signal moves. `CCCCCOc1ccc(OC(=O)c2ccncc2)cc1`: the concentration at half-maximal activity (AC50) at Cytochrome P450 3A4 [1] was 25.1 µM (inconclusive); at Cytochrome P450 2D6 it was 3.98 µM (inconclusive); in [2], 7.57 µM (active); in series [3], 21.2 µM (active).

The EC50 is the concentration needed to bring the measured effect to its halfway point. As to `CCn1c(=O)cc(SCC(=O)NCCCN2CCN(c3ccc(F)cc3)CC2)c2ccccc21`, the IC50 in series [4] was 4.95 µM (active); in series [8] it was 5.57 µM (active); on Bcl-2-related protein A1 it was > 20 µM (inactive). Also, the values for the EC50 in series [5], in series [6] and in series [7] were > 79.4 µM (inactive), > 79.4 µM (not active) and > 79.4 µM (not active), respectively.

As to `Cc1cc(C)nc(N=C(N)Nc2ccc(F)c([N+](=O)[O-])c2)n1`, the IC50 was 10.1 µM (inactive) in series [9], 11.6 µM (inactive) in the series on CHO-K1, 15.1 µM (inactive) in series [10] and 17.8 µM (inactive) in series [11].

Turning to `Cn1cccc1C(=O)N1CCC2(CC1)CCN(c1ncccn1)CC2`, on Cytochrome P450 3A4 [12], the AC50 entry is “inconclusive”.

For `Cn1c(=O)c(-c2ccc(F)cc2)nc2cnc(N3CCOCC3)nc21`, the AC50 result on Cytochrome P450 3A4 [12] is on record as “inconclusive”.

On to `CC[N+]1=C(C)C(C)(C)c2cc(C)ccc21`, for which the IC50 on Protein Wnt-3a was 0.892 µM (active); in series [15] it was > 50 µM (not active). For the same compound, the half-maximal activity concentration (AC50) in [2] is 24 µM (active); with INS1 it was 5.84 µM (active); in series [3] it was 64.4 µM (active). The EC50 in [13] was 1.49 µM (active); in series [14], > 60 µM (not active).

In the case of `NC(=O)CC(NC(=O)Cc1cccc2ccccc12)c1ccc(NC2CCCCC2)c([N+](=O)[O-])c1` (stereo not given), the half-maximal activity concentration (AC50) in [2] is 5.79 µM (active); in [3], 27.9 µM (active).

Take `Cc1ccc(C(=O)NCCc2ccc(F)cc2)s1`: the AC50 with HeLa was 43.2 µM (active).

Consider `COC(=O)c1cc(C(=O)c2cccc(Cl)c2Cl)cn1C`, for which the AC50 entry on Cytochrome P450 2C9 and on Cytochrome P450 3A4 [12] was “inconclusive” each time.

For `Cc1nc2cc(NC(=O)COc3ccccc3C#N)ccc2n1-c1ccccc1`, the IC50 was 1.61 µM (active) in series [9], > 66.2 µM (inactive) in the series with CHO-K1, 3.45 µM (active) in series [10] and > 49.7 µM (inactive) in series [11].

Turning to `C(=N\Nc1ccccn1)/c1ccc(N2CCOCC2)cc1`, in [16], the IC50 is 134 µM (active). Moreover, the AC50 in the series with Escherichia coli was 62 µM (active).

With `CCc1ccc(O)c(-c2cc(C(=O)Nc3cccnc3)[nH]n2)c1`, the AC50 with HeLa was > 350 µM (inactive).
